Values of other authors in patent publication US20110015074A1, “STABILIZED HERBICIDAL FORMULATIONS AND METHODS OF USE” (priority 2009, published 2011).

Settings: sunlight (UV), after the end of the second year of storage period

## CCSC(C)CC1CC(=O)C(/C(CC)=N/OC/C=C/Cl)=C(O)C1 (racemic) [clethodim (technical), (±)-2-[(E)-1-[(E)-3-Chloroallyloxyimino]propyl]-5-[2-(ethylthio)propyl]-3-hydroxycyclohex-2-enone]
  loss or degradation of clethodim: 42.33 % active ingredient
